The record followed here is publication PMC12388496, “Discovery of (E)-1,3-Diphenyl-2-Propen-1-One Derivatives as Potent and Orally Active NLRP3 Inflammasome Inhibitors for Colitis” (Molecules, 2025).

Data set [1] has as its system IL-1β secretion in BMDM cells (NLRP3 inflammasome). In words: ELISA of IL-1β secretion in LPS/nigericin-treated BMDM cells. It is filed as cell-based. As to conditions: Mus musculus; 20 µM; LPS/nigericin-treated BMDM cells; mean ± S.E.M. (n = 3); read-out: IL-1β Inhibition Rate (%). The method, then:
When L929 cells reach the logarithmic phase, collect the cell supernatant. Filter the supernatant using a 0.22 μm filter and store it at −20 °C for future use. The 7-week-old C57BL/6 mice were selected as the source of primary bone marrow macrophages. The mice were euthanized using the cervical dislocation method. The ends of the femurs were cut, and the bone marrow was flushed into a 15 mL centrifuge tube using a 5 mL syringe. Once all the bone marrow was collected, an appropriate amount of red blood cell lysis buffer was added to the centrifuge tube. The mixture was incubated for 3–5 min, with repeated pipetting to thoroughly lyse the red blood cells. The cells were then centrifuged and collected. Add 30–40% L929 cell supernatant or M-CSF stimulatory factor to the culture dish. Culture the cells in a cell incubator at 37 °C with 5% CO2. Observe the cell condition daily, and once most cells have adhered to the surface, proceed with subsequent experiments.
Inoculate 1.0 × 10^5 BMDMs cells per well into a 96 well plate and culture overnight. Stimulate the cells with lipopolysaccharide (LPS) at a concentration of 0.2 μg/mL for 3 h, then add different concentrations of the test compounds and incubate for 30 min. Finally, add Nigericin at a concentration of 10 μM to continue the induction for 30 min. Collect the cell supernatant and measure the IL-1β secretion level in the supernatant using an ELISA kit, following the instructions provided, and calculate the IC50 value based on the relevant calculations. To ensure the accuracy and reliability of the experimental results, all experiments were repeated three times, with each experiment performed independently.

Data set [2] in a line: MTT assay, HepaRG cytotoxicity. It is filed as cell-based. As to conditions: human, HepaRG cells, n = 3. The method, then: HepaRG cells in the logarithmic growth phase (10^5 cells/mL), inoculate them into a 96-well plate, and culture overnight in a 37 °C, 5% CO2 incubator. Add compounds at different concentrations and continue culturing for 24 h. Add 20 μL of MTT solution, incubate for 4 h, discard the supernatant, and add DMSO to dissolve.

By inhibition is commonly meant the change of the read-out against control, counted positive when it falls. Usually IC50 stands for the midpoint of a concentration-inhibition curve. A high value points to weaker potency. With `O=C(/C=C/c1ccccc1O)c1ccccc1` [Compound F1], the inhibition at 20 µM in data set [1] worked out at 52.1 ± 3.72%. For the same compound, the IC50 at 24 h in data set [2] is more than 50 µM.

For `COc1cccc(C(=O)/C=C/c2cccc(O)c2)c1` [Compound F3, (E)-3-(3-hydroxyphenyl)-1-(3-methoxyphenyl)propyl-2-en-1-one], the inhibition at 20 µM in data set [1] was 93.4 ± 2.98%. Further, the IC50 at 24 h in data set [2] was more than 50 µM.

With `O=C(/C=C/c1cccc(O)c1)c1ccccc1` [Compound F4, (E)-3-(3-hydroxyphenyl)-1-phenylpropyl-2-en-1-one], in data set [1], the inhibition at 20 µM amounted to 25.6 ± 9.03%. Also, the IC50 at 24 h in data set [2] was more than 50 µM.

With `COc1ccc(C(=O)/C=C/c2cccc(O)c2)cc1` [Compound F6, (E)-3-(3-hydroxyphenyl)-1-(4-methoxyphenyl)propyl-2-en-1-one], the inhibition at 20 µM in data set [1] was 25.1 ± 2.84%. This compound also showed an IC50 at 24 h in data set [2] of more than 50 µM.

As for `O=C(/C=C/c1ccccc1O)c1ccccc1Cl` [Compound F7, (E)-1-(2-chlorophenyl)-3-(2-hydroxyphenyl)propyl-2-en-1-one], the inhibition at 20 µM in data set [1] amounted to 94.8 ± 3.29%. Besides, the IC50 at 24 h in data set [2] was more than 50 µM.

For `O=C(/C=C/c1ccccc1O)c1ccc(Cl)cc1` [Compound F8, (E)-1-(4-chlorophenyl)-3-(2-hydroxyphenyl)propyl-2-en-1-one], the inhibition at 20 µM in data set [1] stood at 45.9 ± 3.45%. For the same compound, in data set [2], the IC50 at 24 h was more than 50 µM.

For `O=C(/C=C/c1ccccc1O)c1ccc(Br)cc1` [Compound F9, (E)-1-(4-bromophenyl)-3-(2-hydroxyphenyl)propyl-2-en-1-one], the inhibition at 20 µM in data set [1] was determined as 28.4 ± 5.76%. The compound further displayed an IC50 at 24 h in data set [2] of more than 50 µM.

Take `O=C(/C=C/c1cccc(O)c1)c1ccc(Br)cc1` [Compound F10, (E)-1-(4-bromophenyl)-3-(3-hydroxyphenyl)propyl-2-en-1-one]: the inhibition at 20 µM in data set [1] was 24.2 ± 7.91%. Also, in data set [2], the IC50 at 24 h is more than 50 µM.

For the compound `Cc1ccc(C(=O)/C=C/c2ccccc2O)c(C)c1` [Compound F11, (E)-1-(2,4-dimethylphenyl)-3-(2-hydroxyphenyl)propyl-2-en-1-one], the inhibition at 20 µM in data set [1] amounted to 88.7 ± 9.22%. Besides, the IC50 at 24 h in data set [2] was more than 50 µM.

Take `Cc1ccc(C(=O)/C=C/c2cccc(O)c2)cc1C` [Compound F12, (E)-1-(3,4-dimethylphenyl)-3-(3-hydroxyphenyl)propyl-2-en-1-one]: the inhibition at 20 µM in data set [1] came out at 15.4 ± 4.13%. The compound also gave an IC50 at 24 h in data set [2] of more than 50 µM.

`O=C(/C=C/c1cccc(O)c1)c1cccc(F)c1` [Compound F13, (E)-1-(3-fluorophenyl)-3-(3-hydroxyphenyl)propyl-2-en-1-one]: the inhibition at 20 µM in data set [1] worked out at 34 ± 8.74%. The IC50 at 24 h in data set [2] was more than 50 µM.

With `O=C(/C=C/c1ccccc1O)c1cccc2ccccc12` [Compound F15, (E)-3-(2-hydroxyphenyl)-1-(naphthale-1-yl)propyl-2-en-1-one], the inhibition at 20 µM in data set [1] came to 91.7 ± 5.89%. Also, the IC50 at 24 h in data set [2] was more than 50 µM.

In the case of `O=C(/C=C/c1ccccc1O)c1cccs1` [Compound F16, (E)-3-(2-hydroxyphenyl)-1-(thiophene-2-yl)propion-2-en-1-one], the inhibition at 20 µM in data set [1] was found to be 92.6 ± 3.23%. Moreover, the IC50 at 24 h in data set [2] is more than 50 µM.

As to `O=C(/C=C/c1ccc(O)cc1)c1ccccc1` [Compound W1, (E)-3-(4-hydroxyphenyl)-1-phenylprop-2-en-1-one], the inhibition at 20 µM in data set [1] is 17.8 ± 3.45%. In data set [2], this compound displayed an IC50 at 24 h of more than 50 µM.

For the compound `COc1cccc(C(=O)/C=C/c2ccc(O)cc2)c1` [Compound W2, (E)-3-(4-hydroxyphenyl)-1-(3-methoxyphenyl)propyl-2-en-1-one], in data set [1], the inhibition at 20 µM amounted to 67 ± 1.23%. The IC50 at 24 h in data set [2] is more than 50 µM.

Regarding `O=C(/C=C/c1ccc(O)cc1)c1cccc(Cl)c1` [Compound W3, (E)-1-(3-chlorophenyl)-3-(4-hydroxyphenyl)propyl-2-en-1-one], the inhibition at 20 µM in data set [1] turned out to be 21.8 ± 9.56%. In data set [2], the IC50 at 24 h was more than 50 µM.

Regarding `COc1ccc(C(=O)/C=C/c2ccc(O)cc2)cc1` [Compound W4, (E)-3-(4-hydroxyphenyl)-1-(4-methoxyphenyl)propyl-2-en-1-one], in data set [1], the inhibition at 20 µM is 6.89 ± 4.78%. In data set [2], this compound came in with an IC50 at 24 h of more than 50 µM.

As to `O=C(/C=C/c1ccc(O)cc1)c1ccccc1Cl` [Compound W5, (E)-1-(2-chlorophenyl)-3-(4-hydroxyphenyl)propion-2-en-1-one], the inhibition at 20 µM in data set [1] amounted to 51.7 ± 2.23%. The IC50 at 24 h in data set [2] was more than 50 µM.

`O=C(/C=C/c1ccc(O)cc1)c1ccc(Cl)cc1` [Compound W7, (E)-1-(4-chlorophenyl)-3-(4-hydroxyphenyl)propyl-2-en-1-one]: the inhibition at 20 µM in data set [1] amounted to 24.3 ± 3.67%. In data set [2], this compound registered an IC50 at 24 h of more than 50 µM.

On to `Cc1ccc(C(=O)/C=C/c2ccc(O)cc2)c(C)c1` [Compound W8, (E)-1-(2,4-dimethylphenyl)-3-(4-hydroxyphenyl)propyl-2-en-1-one], for which the inhibition at 20 µM in data set [1] came out at 88.9 ± 5.91%. The IC50 at 24 h in data set [2] was more than 50 µM.

As for `Cc1ccc(C(=O)/C=C/c2ccc(O)cc2)cc1C` [Compound W9, (E)-1-(3,4-dimethylphenyl)-3-(4-hydroxyphenyl)propyl-2-en-1-one], the inhibition at 20 µM in data set [1] is 10.3 ± 6.43%. Also, in data set [2], the IC50 at 24 h was more than 50 µM.

For `O=C(/C=C/c1ccc(O)cc1)c1cccc(F)c1` [Compound W10, (E)-1-(3-fluorophenyl)-3-(4-hydroxyphenyl)propyl-2-en-1-one], the inhibition at 20 µM in data set [1] is 33.6 ± 3.21%. The IC50 at 24 h in data set [2] was more than 50 µM.

Turning to `O=C(/C=C/c1ccc(O)cc1)c1cccc2ccccc12` [Compound W11, (E)-3-(4-hydroxyphenyl)-1-(naphthalene-1-yl)propyl-2-en-1-one], the inhibition at 20 µM in data set [1] amounted to 88.3 ± 7.01%. The compound also had an IC50 at 24 h in data set [2] of more than 50 µM.

`CC(C)(O)c1coc(S(=O)(=O)NC(=O)Nc2c3c(cc4c2CCC4)CCC3)c1` [MCC950, reference compound] showed an IC50 at 24 h in data set [2] of more than 50 µM.
